Assay results from ChEMBL document CHEMBL1201862, “PubChem BioAssay data set” (2004).
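Briefly, cells in 96-well plates were exposed to five compound concentrations for 48 h, and endpoints were estimated by linear interpolation. Here, GI50 denotes the concentration required for 50% inhibition of growth.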 Activity calls are given as the source filed them. Cut-off read from the data, not from the text of the source: active = GI50 up to about 1.1 µM and inactive = higher.

How the values were obtained:
Test in all cases: NCI-60 cell line screen, 48 h
MCF7 = test system: MCF7
IGROV-1 = test system: IGROV-1
UACC-62 = test system: UACC-62
HCT-15 = test system: HCT-15
RXF 393 = test system: RXF 393
ACHN = test system: ACHN
K562 = test system: K562
COLO 205 = test system: COLO 205
SK-OV-3 = test system: SK-OV-3
LOX IMVI = test system: LOX IMVI
786-0 = test system: 786-0
M14 = test system: M14
HOP-62 = test system: HOP-62
KM12 = test system: KM12
HL-60 = test system: HL-60
NCI-H522 = test system: NCI-H522
SN12C = test system: SN12C
OVCAR-5 = test system: OVCAR-5
A549 = test system: A549
MDA-N = test system: MDA-N

Structure (SMILES)	GI50 (MCF7)	GI50 (IGROV-1)	GI50 (UACC-62)	GI50 (HCT-15) [µM]	GI50 (RXF 393)	GI50 (ACHN)	GI50 (K562)	GI50 (COLO 205)	GI50 (SK-OV-3)	GI50 (LOX IMVI)	GI50 (786-0)	GI50 (M14)	GI50 (HOP-62)	GI50 (KM12)	GI50 (HL-60)	GI50 (NCI-H522)	GI50 (SN12C)	GI50 (OVCAR-5)	GI50 (A549)	GI50 (MDA-N)
CC1=NN(c2nc(N)nc(/C(C#N)=C/c3ccncc3)n2)C(C)(C)C1	91.8 µM (inactive)	> 100 µM (inactive)	> 100 µM (inactive)	> 100	32 µM (inactive)	> 100 µM (inactive)	13.5 µM (inactive)	> 100 µM (inactive)	> 100 µM (inactive)	> 100 µM (inactive)	> 100 µM (inactive)	> 100 µM (inactive)	> 100 µM (inactive)	> 100 µM (inactive)	52.1 µM (inactive)					
O=C(Nc1sccc1S(=O)(=O)c1ccc(Cl)cc1)c1ccc(Cl)cc1Cl	44.6 µM (inactive)	> 100 µM (inactive)	> 62.2 µM (inactive)	> 100	> 100 µM (inactive)	> 100 µM (inactive)	> 53.3 µM (inactive)	> 100 µM (inactive)	> 100 µM (inactive)	> 74.6 µM (inactive)	> 100 µM (inactive)	> 100 µM (inactive)	> 100 µM (inactive)	82.2 µM (inactive)	> 100 µM (inactive)	34.1 µM (inactive)	> 100 µM (inactive)	> 84.5 µM (inactive)	> 95.7 µM (inactive)	
COC(=O)c1ccc(OCc2ccc3nc(-c4ccccc4)c(Cl)nc3c2)cc1	> 100 µM (inactive)	85.5 µM (inactive)	> 100 µM (inactive)	> 100		48.8 µM (inactive)		76.2 µM (inactive)		> 100 µM (inactive)	21 µM (inactive)	> 100 µM (inactive)	29.4 µM (inactive)	> 100 µM (inactive)	40.6 µM (inactive)	11.8 µM (inactive)	> 100 µM (inactive)	> 100 µM (inactive)	86.9 µM (inactive)	> 100 µM (inactive)
OCC(O)C(Cl)CCl (centres undefined)	> 100 µM (inactive)	> 100 µM (inactive)	> 100 µM (inactive)	> 100		> 100 µM (inactive)	> 100 µM (inactive)	> 100 µM (inactive)	> 100 µM (inactive)		> 100 µM (inactive)	> 100 µM (inactive)	> 100 µM (inactive)	> 100 µM (inactive)	> 100 µM (inactive)	> 100 µM (inactive)	> 100 µM (inactive)	> 100 µM (inactive)	> 100 µM (inactive)	> 100 µM (inactive)
Nc1nc(O)nc2sc3c(c12)CCCC3	44.5 µM (inactive)	87.7 µM (inactive)	32.1 µM (inactive)	> 100	> 100 µM (inactive)	> 100 µM (inactive)	61.4 µM (inactive)	39.5 µM (inactive)	> 100 µM (inactive)		> 100 µM (inactive)	41.1 µM (inactive)	98.4 µM (inactive)	33.3 µM (inactive)	88.5 µM (inactive)	46.6 µM (inactive)	73.3 µM (inactive)	> 100 µM (inactive)	84.3 µM (inactive)	
C=CCc1c(O)c2ccccc2[nH]c1=O	> 100 µM (inactive)	> 100 µM (inactive)		> 100		> 100 µM (inactive)	> 100 µM (inactive)	> 100 µM (inactive)		> 100 µM (inactive)	> 100 µM (inactive)		> 100 µM (inactive)	> 100 µM (inactive)	> 100 µM (inactive)	> 100 µM (inactive)	> 100 µM (inactive)	> 100 µM (inactive)	> 100 µM (inactive)	> 100 µM (inactive)
C=C1[C@@H](OC(C)=O)/C=C/C2C3C(=O)[C@@](C)(OC(C)=O)[C@H]([C@H](OC(C)=O)[C@]4(O)[C@@H](C)C(=O)O[C@H]4[C@H]1Cl)[C@@]23C (some centres undefined)		> 100 µM (inactive)	> 100 µM (inactive)	> 100	> 100 µM (inactive)	> 100 µM (inactive)	> 100 µM (inactive)	> 100 µM (inactive)	> 100 µM (inactive)	> 100 µM (inactive)	> 100 µM (inactive)	> 100 µM (inactive)	> 100 µM (inactive)	> 100 µM (inactive)		> 100 µM (inactive)	> 100 µM (inactive)	> 100 µM (inactive)	> 100 µM (inactive)	> 100 µM (inactive)
Oc1[nH]c(Nc2ccc(F)c(Cl)c2)nc2ncnc1-2	> 100 µM (inactive)	> 100 µM (inactive)	> 100 µM (inactive)	> 100		> 100 µM (inactive)		> 100 µM (inactive)	> 100 µM (inactive)	> 100 µM (inactive)	82 µM (inactive)	> 100 µM (inactive)	> 100 µM (inactive)	> 100 µM (inactive)	> 100 µM (inactive)	> 100 µM (inactive)	> 100 µM (inactive)	> 100 µM (inactive)	> 100 µM (inactive)	> 100 µM (inactive)
